Laboratory results taken from the supplement of paper PMC11061612.

Columns and labels:
Experiment in all cases: Bliss excess, mean over the matrix (fraction); higher = more synergy
[1] = tested on: TGBC11TKB (Gastric Carcinoma)
Outline: (§1)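 Cell lines in DMEM/F12 or RPMI with 10% FBS were plated in 1536-well plates, held 24 hours at 37°C, 5% CO2, then given two-drug dose matrices for 72 hours (DMSO typically 0.2%). Viability was read by CellTiter-Glo 2.0 luminescence and scaled as inhibition from 0 (vehicle wells) to 1 (blank wells). Combination Emax is the second-highest inhibition in the matrix; Bliss excess is observed combination effect minus expected EA + EB − EA·EB, EA and EB being single-agent effects.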

[2] = tested on: KU-19-19 (Bladder Carcinoma)
Outline: as §1

[3] = tested on: VMRC-LCD (Lung Adenocarcinoma)
Outline: as §1

[4] = tested on: NCI-H2405 (Lung Adenocarcinoma)
Outline: as §1

[5] = tested on: BV-173 (Chronic Myelogenous Leukemia)
Outline: as §1

[6] = tested on: HC-1 (Other Blood Carcinomas)
Outline: as §1

[7] = tested on: SCC-9 (Oral Cavity Carcinoma)
Outline: as §1

[8] = tested on: SNU-C1 (Colorectal Carcinoma)
Outline: as §1

[9] = tested on: NCI-H322M (Lung Adenocarcinoma)
Outline: as §1

[10] = tested on: KYSE-150 (Esophageal Squamous Cell Carcinoma)
Outline: as §1

[11] = tested on: MFE-319 (Endometrial Carcinoma)
Outline: as §1

[12] = tested on: GI-1 (Glioblastoma)
Outline: as §1

[13] = tested on: U-87-MG (Glioblastoma)
Outline: as §1

[14] = tested on: KINGS-1 (Low Grade Glioma)
Outline: as §1

[15] = tested on: A704 (Kidney Carcinoma)
Outline: as §1

[16] = tested on: NCI-N87 (Gastric Carcinoma)
Outline: as §1

[17] = tested on: NCI-H1573 (Lung Adenocarcinoma)
Outline: as §1

[18] = tested on: IMR-5 (Neuroblastoma)
Outline: as §1

[19] = tested on: NH-12 (Neuroblastoma)
Outline: as §1

[20] = tested on: RPMI-7951 (Melanoma)
Outline: as §1

Row | SMILES | Bliss excess [1] | Bliss excess [2] | Bliss excess [3] | Bliss excess [4] | Bliss excess [5] | Bliss excess [6] | Bliss excess [7] | Bliss excess [8] | Bliss excess [9] | Bliss excess [10] | Bliss excess [11] | Bliss excess [12] | Bliss excess [13] | Bliss excess [14] | Bliss excess [15] | Bliss excess [16] | Bliss excess [17] | Bliss excess [18] | Bliss excess [19] | Bliss excess [20]
1 | Cc1c2c(nn1C)CSCc1cc(n(C)n1)CSc1cc(c3ccccc3c1)OCCCc1c(C(=O)O)n(C)c3c-2c(Cl)ccc13 [AZD5991] + C=CCn1c(=O)c2cnc(Nc3ccc(N4CCN(C)CC4)cc3)nc2n1-c1cccc(C(C)(C)O)n1 [AZD1775] (first compound max 1 µM, partner max 1 µM) | -0.0383 | -0.0518 | -0.0174 | 0.0385 | -0.072 | 0.0432 | -0.0123 | -0.0839 | -0.023 | 0.0496 | 0.0074 | -0.0109 | 0.0392 | -0.0037 | -0.0506 | -0.0275 | -0.0248 | 0.0063 | -0.0549 | –
2 | Cc1c2c(nn1C)CSCc1cc(n(C)n1)CSc1cc(c3ccccc3c1)OCCCc1c(C(=O)O)n(C)c3c-2c(Cl)ccc13 [AZD5991] + CC1(C)CCC(CN2CCN(c3ccc(C(=O)NS(=O)(=O)c4ccc(NCC5CCOCC5)c([N+](=O)[O-])c4)c(Oc4cnc5[nH]ccc5c4)c3)CC2)=C(c2ccc(Cl)cc2)C1 [Venetoclax] (first compound max 1 µM, 7x7, partner max 1 µM) | 0.0364 | 0.0578 | -0.0217 | -0.0346 | 0.0178 | – | -0.0278 | -0.0458 | -0.0378 | -0.0324 | 0.0377 | 0.0476 | -0.0877 | -0.0771 | -0.0306 | -0.0041 | -0.036 | 0.0656 | 0.139 | -0.0568
3 | Cc1c2c(nn1C)CSCc1cc(n(C)n1)CSc1cc(c3ccccc3c1)OCCCc1c(C(=O)O)n(C)c3c-2c(Cl)ccc13 [AZD5991] + CCN(CCO)CCCOc1ccc2c(Nc3cc(CC(=O)Nc4cccc(F)c4)[nH]n3)ncnc2c1 [AZD2811] (first compound max 1 µM, 7x7, partner max 1 µM) | 0.0266 | 0.0376 | -0.0133 | -0.0164 | -0.0554 | 0.13 | – | -0.0256 | -0.0057 | -0.0339 | 0.0215 | 0.0731 | 0.0065 | -0.0253 | -0.0462 | -0.0104 | -0.0145 | -0.0117 | -0.0331 | -0.0924
4 | COc1cccc(OCCCN)c1-c1cc(Nc2cnc(C#N)cn2)n[nH]1 [Prexasertib] + C[C@@H]1COCCN1C2=NC(=NC(=C2)C3(CC3)[S@](=N)(=O)C)C4=C5C=CNC5=NC=C4 [AZD6738] (first compound max 1 µM, 7x7, partner max 10 µM) | -0.0137 | -0.0796 | 0.0201 | 0.0046 | -0.0473 | -0.0139 | 0.0803 | -0.0078 | -0.0367 | -0.0265 | -0.0238 | -0.0195 | – | 0.0426 | 0.0224 | -0.0253 | 0.0055 | -0.01 | -0.0392 | -0.0372
5 | CN(C)CCCOc1ccc(-c2ccc3ncc4c(c3c2)n(C2CCOCC2)c(=O)n4C)cn1 [AZD0156] + C[C@@H]1COCCN1C2=NC(=NC(=C2)C3(CC3)[S@](=N)(=O)C)C4=C5C=CNC5=NC=C4 [AZD6738] (first compound max 1 µM, 7x7, partner max 10 µM) | 0.0055 | 0.0275 | -0.0343 | -0.0027 | 0.0179 | -0.0214 | -0.0424 | 0.0001 | -0.0076 | 0.0146 | -0.0027 | -0.0234 | – | -0.0474 | -0.0067 | -0.0286 | -0.0098 | -0.0432 | -0.0215 | 0.0468
6 | COc1cc2c(cc1OCCCCCOc1cc3c(cc1OC)C(=O)N1C=C(C)C[C@H]1C=N3)N=C[C@@H]1CC(C)=CN1C2=O [SG3199] + O=C(c1cc(Cc2n[nH]c(=O)c3ccccc23)ccc1F)N1CCN(C(=O)C2CC2)CC1 [Olaparib] (first compound max 0.001 µM, 7x7, partner max 10 µM) | -0.0038 | -0.0041 | -0.042 | -0.043 | 0.0535 | -0.0164 | -0.0352 | -0.0446 | -0.0014 | -0.0131 | -0.041 | -0.0178 | – | -0.0434 | -0.025 | -0.0477 | -0.0212 | 0.0167 | 0.0343 | 0.0032
7 | Cc1cc2ncnn2cc1Nc1ncc2c(n1)n(C1CCOCC1)c(=O)n2C [AZD7648] + C[C@@H]1COCCN1C2=NC(=NC(=C2)C3(CC3)[S@](=N)(=O)C)C4=C5C=CNC5=NC=C4 [AZD6738] (first compound max 10 µM, 7x7, partner max 10 µM) | 0.0009 | -0.0127 | 0.0143 | 0.0068 | -0.0194 | -0.131 | 0.0507 | -0.0708 | -0.0048 | -0.0061 | 0.0546 | 0.018 | – | 0.0412 | 0.0177 | 0.024 | 0.0363 | 0.0088 | -0.0035 | 0.0028
8 | Cc1cc2ncnn2cc1Nc1ncc2c(n1)n(C1CCOCC1)c(=O)n2C [AZD7648] + CCN(CCO)CCCOc1ccc2c(Nc3cc(CC(=O)Nc4cccc(F)c4)[nH]n3)ncnc2c1 [AZD2811] (first compound max 10 µM, 7x7, partner max 1 µM) | 0.0666 | 0.0227 | -0.0267 | -0.015 | -0.025 | 0.0045 | 0.0414 | -0.0184 | -0.0182 | 0.003 | 0.0419 | 0.043 | – | 0.0339 | -0.0368 | 0.0081 | 0.0382 | -0.0188 | -0.001 | 0.0312
9 | Cc1cc2ncnn2cc1Nc1ncc2c(n1)n(C1CCOCC1)c(=O)n2C [AZD7648] + C=CCn1c(=O)c2cnc(Nc3ccc(N4CCN(C)CC4)cc3)nc2n1-c1cccc(C(C)(C)O)n1 [AZD1775] (first compound max 10 µM, partner max 1 µM) | -0.0551 | -0.0201 | -0.0057 | -0.0064 | 0.0237 | -0.106 | 0.0332 | -0.0209 | -0.0215 | 0.0333 | -0.0055 | 0.0071 | – | -0.0041 | -0.0409 | -0.0342 | -0.0215 | -0.0146 | 0.0005 | -0.039
10 | C[C@@H](c1ccc2nccn2c1)n1nnc2ncc(-c3cnn(C)c3)nc21 [Savolitinib] + CN(CC[C@H](CSC1=CC=CC=C1)NC2=C(C=C(C=C2)S(=O)(=O)NC(=O)C3=CC=C(C=C3)N4CCC(CC4)[C@H](C5=CC=CC=C5C6=CC=C(C=C6)Cl)O)S(=O)(=O)C(F)(F)F)CCO [AZD4320] (first compound max 1 µM, 7x7, partner max 1 µM) | – | -0.0259 | – | -0.0553 | -0.0004 | -0.0254 | – | – | -0.0487 | -0.0775 | -0.0736 | – | -0.143 | – | -0.0766 | – | -0.0473 | -0.0399 | -0.0131 | -0.0203
11 | CCN(CCO)CCCOc1ccc2c(Nc3cc(CC(=O)Nc4cccc(F)c4)[nH]n3)ncnc2c1 [AZD2811] + C[C@@H]1COCCN1C2=NC(=NC(=C2)C3(CC3)[S@](=N)(=O)C)C4=C5C=CNC5=NC=C4 [AZD6738] (first compound max 1 µM, 7x7, partner max 10 µM) | -0.0091 | -0.0384 | -0.0853 | -0.0526 | -0.0537 | -0.007 | -0.0594 | -0.122 | -0.0484 | -0.0466 | -0.0472 | 0.0144 | – | -0.112 | -0.0087 | -0.0855 | -0.0613 | -0.0339 | 0.0347 | -0.0291
12 | CN(CCO)CC[C@H](CSc1ccccc1)Nc1ccc(S(=O)(=O)NC(=O)c2ccc(N3CCC([C@@H](O)c4ccccc4-c4ccc(Cl)cc4)CC3)cc2)cc1S(=O)(=O)C(F)(F)F [AZD4320] + Cn1cnc2c(F)c(Nc3ccc(Br)cc3Cl)c(C(=O)NOCCO)cc21 [Selumetinib] (first compound max 1 µM, 7x7, partner max 3 µM) | 0.0843 | 0.0193 | 0.0277 | 0.0717 | -0.018 | 0.0026 | 0.005 | – | 0.0818 | -0.0152 | 0.0645 | 0.0069 | -0.0117 | 0.0328 | -0.075 | 0.0201 | 0.0027 | 0.0409 | 0.0593 | -0.006
13 | CC(=O)c1c(C)c2cnc(Nc3ccc(N4CCNCC4)cn3)nc2n(C2CCCC2)c1=O [Palbociclib] + CN(CC[C@H](CSC1=CC=CC=C1)NC2=C(C=C(C=C2)S(=O)(=O)NC(=O)C3=CC=C(C=C3)N4CCC(CC4)[C@H](C5=CC=CC=C5C6=CC=C(C=C6)Cl)O)S(=O)(=O)C(F)(F)F)CCO [AZD4320] (first compound max 10 µM, 7x7, partner max 1 µM) | – | -0.0482 | – | -0.0614 | -0.0524 | 0.0001 | – | – | -0.0711 | -0.109 | -0.0554 | – | -0.0528 | – | -0.0376 | – | -0.109 | 0.0866 | 0.0594 | 0.0312
14 | COc1nnc2ccc(N3CCC(c4ccc(OCCN5CCN(C)C(=O)[C@H]5C)cc4)CC3)nn12 [AZD5153] + CN(CC[C@H](CSC1=CC=CC=C1)NC2=C(C=C(C=C2)S(=O)(=O)NC(=O)C3=CC=C(C=C3)N4CCC(CC4)[C@H](C5=CC=CC=C5C6=CC=C(C=C6)Cl)O)S(=O)(=O)C(F)(F)F)CCO [AZD4320] (first compound max 1 µM, 7x7, partner max 1 µM) | – | 0.0829 | – | 0.0342 | -0.0879 | -0.0468 | – | – | 0.0066 | 0.0321 | -0.0369 | – | 0.099 | – | 0.0754 | – | 0.0178 | 0.0807 | -0.0413 | 0.0467
